From ChEMBL document CHEMBL1201862, “PubChem BioAssay data set” (2004)
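Protocol summary: plate cells (96-well), add compound at 5 concentrations, incubate 48 h, interpolate endpoints linearly. GI50 marks 50% less growth.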 Activity calls are given as the source filed them. Cut-off read from the data, not from the text of the source: active = GI50 up to about 1.1 µM and inactive = higher.

How the values were obtained:
Assay in all cases: NCI-60 cell line screen, 48 h
786-0 = tested on: 786-0
A498 = tested on: A498
A549 = tested on: A549
ACHN = tested on: ACHN
BT-549 = tested on: BT-549
CAKI-1 = tested on: CAKI-1
CCRF-CEM = tested on: CCRF-CEM
COLO 205 = tested on: COLO 205
DU-145 = tested on: DU-145
EKVX = tested on: EKVX
HCC 2998 = tested on: HCC 2998
HCT-116 = tested on: HCT-116
HCT-15 = tested on: HCT-15
HL-60 = tested on: HL-60
HOP-62 = tested on: HOP-62
HOP-92 = tested on: HOP-92
HT-29 = tested on: HT-29
Hs-578T = tested on: Hs-578T
IGROV-1 = tested on: IGROV-1
K562 = tested on: K562
KM12 = tested on: KM12
LOX IMVI = tested on: LOX IMVI
M14 = tested on: M14
MCF7 = tested on: MCF7
MDA-MB-231 = tested on: MDA-MB-231
MDA-MB-435 = tested on: MDA-MB-435
MDA-N = tested on: MDA-N
MOLT-4 = tested on: MOLT-4
Malme-3M = tested on: Malme-3M
NCI-H226 = tested on: NCI-H226
NCI-H23 = tested on: NCI-H23
NCI-H460 = tested on: NCI-H460
NCI-H522 = tested on: NCI-H522
NCI/ADR-RES = tested on: NCI/ADR-RES
OVCAR-3 = tested on: OVCAR-3
OVCAR-4 = tested on: OVCAR-4
OVCAR-5 = tested on: OVCAR-5
OVCAR-8 = tested on: OVCAR-8
PC-3 = tested on: PC-3
RPMI-8226 = tested on: RPMI-8226
RXF 393 = tested on: RXF 393
SF-268 = tested on: SF-268
SF-295 = tested on: SF-295
SF-539 = tested on: SF-539
SK-MEL-28 = tested on: SK-MEL-28
SK-MEL-2 = tested on: SK-MEL-2
SK-MEL-5 = tested on: SK-MEL-5
SK-OV-3 = tested on: SK-OV-3
SN12C = tested on: SN12C
SNB-19 = tested on: SNB-19
SNB-75 = tested on: SNB-75
SR = tested on: SR
SW-620 = tested on: SW-620
T47D = tested on: T47D
TK-10 = tested on: TK-10
U-251 = tested on: U-251
UACC-257 = tested on: UACC-257
UACC-62 = tested on: UACC-62
UO-31 = tested on: UO-31

SMILES: CC1=C(O)C(=O)C=C2C1=CC=C1[C@@]2(C)CC[C@@]2(C)[C@@H]3C[C@](C)(C(=O)O)CC[C@]3(C)CC[C@]12C [CELASTROL]
- GI50 (786-0): 14.7 nM (active)
- GI50 (A498): 33.5 nM (active)
- GI50 (A549): 422 nM (active)
- GI50 (ACHN): 16.9 nM (active)
- GI50 (BT-549): 12.4 nM (active)
- GI50 (CAKI-1): 13.5 nM (active)
- GI50 (CCRF-CEM): < 10 nM (active)
- GI50 (COLO 205): 16.6 nM (active)
- GI50 (DU-145): 67.5 nM (active)
- GI50 (EKVX): 47.1 nM (active)
- GI50 (HCC 2998): 30.6 nM (active)
- GI50 (HCT-116): 22.1 nM (active)
- GI50 (HCT-15): 11.3 nM
- GI50 (HL-60): 17.3 nM (active)
- GI50 (HOP-62): 237 nM (active)
- GI50 (HOP-92): 10.1 nM (active)
- GI50 (HT-29): 33 nM (active)
- GI50 (Hs-578T): 42.7 nM (active)
- GI50 (IGROV-1): 17.8 nM (active)
- GI50 (K562): 20.1 nM (active)
- GI50 (KM12): 169 nM (active)
- GI50 (LOX IMVI): 18.2 nM (active)
- GI50 (M14): 44.9 nM (active)
- GI50 (MCF7): 81.8 nM (active)
- GI50 (MDA-MB-231): 21 nM (active)
- GI50 (MDA-MB-435): 35.1 nM (active)
- GI50 (MDA-N): 23.4 nM (active)
- GI50 (MOLT-4): 12.4 nM (active)
- GI50 (Malme-3M): 35.2 nM (active)
- GI50 (NCI-H226): 160 nM (active)
- GI50 (NCI-H23): 52.6 nM (active)
- GI50 (NCI-H460): 149 nM (active)
- GI50 (NCI-H522): 14.3 nM (active)
- GI50 (NCI/ADR-RES): 25.5 nM (active)
- GI50 (OVCAR-3): 26.4 nM (active)
- GI50 (OVCAR-4): 18.8 nM (active)
- GI50 (OVCAR-5): 180 nM (active)
- GI50 (OVCAR-8): 22.6 nM (active)
- GI50 (PC-3): 39.3 nM (active)
- GI50 (RPMI-8226): < 13.6 nM (active)
- GI50 (RXF 393): 11.1 nM (active)
- GI50 (SF-268): 44.6 nM (active)
- GI50 (SF-295): 194 nM (active)
- GI50 (SF-539): 81.1 nM (active)
- GI50 (SK-MEL-28): 16.4 nM (active)
- GI50 (SK-MEL-2): 119 nM (active)
- GI50 (SK-MEL-5): 70 nM (active)
- GI50 (SK-OV-3): 238 nM (active)
- GI50 (SN12C): 37.6 nM (active)
- GI50 (SNB-19): 75.7 nM (active)
- GI50 (SNB-75): 132 nM (active)
- GI50 (SR): < 10 nM (active)
- GI50 (SW-620): 19.9 nM (active)
- GI50 (T47D): 19.8 nM (active)
- GI50 (TK-10): < 10.5 nM (active)
- GI50 (U-251): 29.8 nM (active)
- GI50 (UACC-257): 25.6 nM (active)
- GI50 (UACC-62): 23.7 nM (active)
- GI50 (UO-31): 30.8 nM (active)

SMILES: CCCCC1Cc2cc(OC)ccc2-c2n1c1cc(OC)ccc1[n+]2C.CCCCC1Cc2cc(OC)ccc2-c2n1c1ccc(OC)cc1[n+]2C (stereo not drawn)
- GI50 (786-0): 7130 nM (inactive)
- GI50 (A498): 16900 nM (inactive)
- GI50 (A549): 1480 nM (inactive)
- GI50 (ACHN): 12600 nM (inactive)
- GI50 (BT-549): 1660 nM (inactive)
- GI50 (CAKI-1): 35800 nM (inactive)
- GI50 (CCRF-CEM): 2640 nM (inactive)
- GI50 (COLO 205): 401 nM (active)
- GI50 (DU-145): 5320 nM (inactive)
- GI50 (EKVX): 466 nM (active)
- GI50 (HCC 2998): 703 nM (active)
- GI50 (HCT-116): 3220 nM (inactive)
- GI50 (HCT-15): 21700 nM
- GI50 (HL-60): 261 nM (active)
- GI50 (HOP-62): 6080 nM (inactive)
- GI50 (HOP-92): 427 nM (active)
- GI50 (HT-29): 1970 nM (inactive)
- GI50 (Hs-578T): 2770 nM (inactive)
- GI50 (IGROV-1): 1600 nM (inactive)
- GI50 (K562): 475 nM (active)
- GI50 (KM12): 873 nM (active)
- GI50 (LOX IMVI): 2870 nM (inactive)
- GI50 (M14): 3760 nM (inactive)
- GI50 (MCF7): 953 nM (active)
- GI50 (MDA-MB-231): 2630 nM (inactive)
- GI50 (MDA-MB-435): 944 nM (active)
- GI50 (MDA-N): 1470 nM (inactive)
- GI50 (MOLT-4): 4790 nM (inactive)
- GI50 (Malme-3M): 935 nM (active)
- GI50 (NCI-H226): 2920 nM (inactive)
- GI50 (NCI-H23): 839 nM (active)
- GI50 (NCI-H460): 3650 nM (inactive)
- GI50 (NCI-H522): 681 nM (active)
- GI50 (NCI/ADR-RES): > 100000 nM (inactive)
- GI50 (OVCAR-3): 1400 nM (inactive)
- GI50 (OVCAR-4): 2310 nM (inactive)
- GI50 (OVCAR-5): 9770 nM (inactive)
- GI50 (OVCAR-8): 2750 nM (inactive)
- GI50 (PC-3): 2600 nM (inactive)
- GI50 (RPMI-8226): 221 nM (active)
- GI50 (RXF 393): 14200 nM (inactive)
- GI50 (SF-268): 1300 nM (inactive)
- GI50 (SF-295): 2390 nM (inactive)
- GI50 (SF-539): 3340 nM (inactive)
- GI50 (SK-MEL-28): 6300 nM (inactive)
- GI50 (SK-MEL-2): 2460 nM (inactive)
- GI50 (SK-MEL-5): 764 nM (active)
- GI50 (SK-OV-3): 10000 nM (inactive)
- GI50 (SN12C): 975 nM (active)
- GI50 (SNB-19): 904 nM (active)
- GI50 (SNB-75): 6190 nM (inactive)
- GI50 (SR): 2440 nM (inactive)
- GI50 (SW-620): 2820 nM (inactive)
- GI50 (T47D): 656 nM (active)
- GI50 (TK-10): 2180 nM (inactive)
- GI50 (U-251): 332 nM (active)
- GI50 (UACC-257): 1040 nM (active)
- GI50 (UACC-62): 528 nM (active)
- GI50 (UO-31): 15500 nM (inactive)
